US20260109690A1, “HDAC6 INHIBITORS AND METHOD OF THEIR USE” (Baerenkraft Therapeutics, LLC., priority 2024, published 2026)

Experiments:
[1] = ALS mouse model: body weight; assay type: in vivo; conditions: SOD1-G93A mice, in g (unit assumed)
Protocol: Mice were weighed and randomized into different groups and age matched control groups were kept as such. Test compound I-8 was freshly formulated and administered to the respective animals of each group as per body weight. Animals in G1 and G2 were administered with vehicle. G3 and G4 group animals were dosed with compound I-8 at the dose of 15 mg/kg and 30 mg/kg respectively, per orally; Q.D. G4 animals were administered 30 mg/kg dose until day 34 and 50 mg/kg from day 35 onwards.
The body weight of each animal was recorded at the time of randomization and once in 2 days during the study period.

[2] = system: B6SJL.SOD1-G93A transgenic mouse model of amyotrophic lateral sclerosis; experiment: ALS mouse model: neurological scoring; assay type: in vivo, mice; conditions: scale of 4-0
Protocol: At week 9, animals were treated either with vehicle or compound I-8 per orally Q.D. Animals were scored (twice in a week until week 12 and every day thereafter until termination) for motor impairment using Vercelli neurological scoring system at the scale of 4-0. Animals were subjected to different tests for motor coordination and muscle strength assessment once in two weeks.
Animals were scored for motor deficits using the scoring system: • 4—Normal/no sign of motor dysfunction • 3—Presence of hindlimb tremors when suspended by tail • 2—Presence of gait abnormalities • […]—Dragging at least one hindlimb • Absence of right reflex within 30 seconds
Animals were scored twice a week from initiation of treatment until week 12 and everyday thereafter until termination.

[3] = ALS mouse model: bioanalysis of plasma, brain and CSF; assay type: in vivo, mice; conditions: 4-hour timepoint, after week 16
Protocol: At 16 weeks (9+7-week behavioral assessment), animals were dosed either with the vehicle or test compound and 4 hours post dosing, CSF, blood, and brain were collected for bioanalysis. Muscles (tibialis, soleus and gastrocnemius) and spinal cord were collected for histology (optional).
After completion of week 16 (9+7-week behavioral assessment), animals were dosed with the vehicle or test compound. 4 hours post dosing, CSF and blood (retro-orbitally) were collected under mild isoflurane anesthesia. Blood was centrifuged at 5000 rpm for 10 minutes at 4° C. and separated plasma was utilized for plasma drug concentration analysis. Then animals were euthanized, and brain tissue was collected. CSF, plasma and brain tissue samples from G3 and G4 were prepared for bioanalysis and compounds were extracted, and the supernatant was injected for LC-MS/MS bioanalysis. Drug concentration of compound I-8 was calculated from respective calibration curve for G3 and G4.

Tg2576 AD Disease Mice = experiment: Tg2576 study: Morris water maze test; assay type: in vivo; conditions: G3 Tg2576 mice, 50 mg/kg then 80 mg/kg from day 36 p.o.; 9th month, probe test
Protocol: Mice were weighed and randomized into groups. All the test formulations were freshly administered to respective animals of each group as per body weight. Basal behavior of the animals was recorded and analyzed in open field, Y-Maze, and EPM. Post basal behavior, animals were treated with compound I-16 for the duration of 3 months (i.e., from 6 months until 9 months). During the treatment duration, animals were subjected to different behavioral tests such as OFT, Y-maze, and EPM at 7, 8 and 9 months. At the end of experiments (i.e., at 9 months) animals were subjected to Morris water maze test.
Animals were subjected to MWM to test spatial working memory. Animals were subjected to habituation, acquisition, and probe trial phase. On day 0, animals were habituated to the Morris water maze tank filled with water for a duration of 90 seconds. During the acquisition phase from day 1 to 4, animals were allowed to swim or search the hidden platform for a duration of 60 seconds. Animals were subjected to a total of 4 trials from 4 different positions each day. On the day of the probe test, animals were allowed to swim for a duration of 60 seconds without platform and time spent in the target quadrant was recorded. During the acquisition phase, latency to reach the platform was calculated.

[4] = Tg2576 study: bioanalysis; assay type: in vivo, mice
From the text: At termination, animals were given a final dose, and under mild anesthesia, blood was collected retro-orbitally and separated plasma were utilized for bio analysis (G3) and ex vivo analysis. Then animals were euthanized under CO2 asphyxiation and brain tissue was collected and divided into two equal hemispheres. One hemisphere was fixed in 10% NBF for immunohistochemistry and from another hemisphere, dissected cortex and hippocampus was utilized for ex vivo analysis.
At the end of the experiment, animals in group G3 were dosed with the test compound, blood was collected under mild anesthesia, and separated plasma was utilized for drug bioanalysis by LC-MS/MS.

[5] = G4 30 mg/kg (50 mg/kg from day 34) p.o. QD, Day 1
[6] = G4 30 mg/kg (50 mg/kg from day 34) p.o. QD, Day 7
[7] = G4 30 mg/kg (50 mg/kg from day 34) p.o. QD, Day 13
[8] = G4 30 mg/kg (50 mg/kg from day 34) p.o. QD, Day 21
[9] = G4 30 mg/kg (50 mg/kg from day 34) p.o. QD, Day 35
[10] = G4 30 mg/kg (50 mg/kg from day 34) p.o. QD, Day 49
[11] = G4 30 mg/kg (50 mg/kg from day 34) p.o. QD, Day 52 (n = 6-8)
[12] = G4 50 mg/kg p.o. (30 mg/kg until day 33)

For `CC1CN(Cc2ccc(Nc3nccc(-c4ccc(C(=O)NO)cc4)n3)cc2F)CCO1` (racemic) [Compound I-8, 4-(2-((3-fluoro-4-((2-methylmorpholino)methyl)phenyl)amino)pyrimidin-4-yl)-N-hydroxybenzamide], the Body weight ([1]; G3 15 mg/kg p.o. QD, Day 1) was 25.99 ± 0.73, the Body weight ([1]; G3 15 mg/kg p.o. QD, Day 7) was 25.97 ± 0.70 and the Body weight ([1]; G3 15 mg/kg p.o. QD, Day 13) was 26.54 ± 0.52. It also gave a Body weight ([1]; G3 15 mg/kg p.o. QD, Day 21) of 26.81 ± 0.45, a Body weight ([1]; G3 15 mg/kg p.o. QD, Day 27) of 26.51 ± 0.46 and a Body weight ([1]; G3 15 mg/kg p.o. QD, Day 35) of 26.76 ± 0.43. The Body weight ([1]; G3 15 mg/kg p.o. QD, Day 43) was 26.60 ± 0.50, the Body weight ([1]; G3 15 mg/kg p.o. QD, Day 49) was 25.47 ± 0.62 and the Body weight ([1]; G3 15 mg/kg p.o. QD, Day 52) was 24.52 ± 0.68. It also gave a Body weight [1, 5] of 25.66 ± 0.48, a Body weight [1, 6] of 25.64 ± 0.40 and a Body weight [1, 7] of 26.14 ± 0.52. The Body weight [1, 8] was 27.53 ± 0.60, the Body weight ([1]; G4 30 mg/kg (50 mg/kg from day 34) p.o. QD, Day 27) was 27.29 ± 0.52 and the Body weight [1, 9] was 26.55 ± 0.57. For the same molecule, the Body weight ([1]; G4 30 mg/kg (50 mg/kg from day 34) p.o. QD, Day 43) was 26.04 ± 0.60, the Body weight [1, 10] was 24.30 ± 0.96 and the Body weight [1, 11] was 24.75 ± 0.45. It also gave a Neurological scoring ([2]; G3 15 mg/kg p.o. QD, Day 1) of 4 ± 0, a Neurological scoring ([2]; G3 15 mg/kg p.o. QD, Day 7) of 4 ± 0 and a Neurological scoring ([2]; G3 15 mg/kg p.o. QD, Day 13) of 3.89 ± 0.11. For the same molecule, the Neurological scoring ([2]; G3 15 mg/kg p.o. QD, Day 21) was 3.44 ± 0.18, the Neurological scoring ([2]; G3 15 mg/kg p.o. QD, Day 28) was 3.11 ± 0.26 and the Neurological scoring ([2]; G3 15 mg/kg p.o. QD, Day 35) was 2.22 ± 0.22. It also gave a Neurological scoring ([2]; G3 15 mg/kg p.o. QD, Day 42) of 2.11 ± 0.20, a Neurological scoring ([2]; G3 15 mg/kg p.o. QD, Day 49) of 1.89 ± 0.20 and a Neurological scoring ([2]; G3 15 mg/kg p.o. QD, Day 52) of 1.56 ± 0.29. For the same molecule, the Neurological scoring [2, 5] was 4 ± 0, the Neurological scoring [2, 6] was 4 ± 0 and the Neurological scoring [2, 7] was 3.75 ± 0.16. It also gave a Neurological scoring [2, 8] of 3.5 ± 0.19, a Neurological scoring ([2]; G4 30 mg/kg (50 mg/kg from day 34) p.o. QD, Day 28) of 3 ± 0.27 and a Neurological scoring [2, 9] of 2.25 ± 0.25. The Neurological scoring ([2]; G4 30 mg/kg (50 mg/kg from day 34) p.o. QD, Day 42) was 2.13 ± 0.23, the Neurological scoring [2, 10] was 1.88 ± 0.30 and the Neurological scoring [2, 11] was 2 ± 0.26. For the same molecule, the “Brain drug concentration (Mean)” value ([3]; G3 15 mg/kg p.o.) was 2.34, the “Plasma drug concentration (Mean)” value ([3]; G3 15 mg/kg p.o.) was 12.35 and the “Brain drug concentration (Mean)” value [3, 12] was 3.87. For the same molecule, the “CSF drug concentration (Mean)” value [3, 12] was 2.70 and the “Plasma drug concentration (Mean)” value [3, 12] was 136.15.
With `C[C@@H]1CN(Cc2ccc(Nc3nccc(-c4ccc(C(=O)NO)cc4)n3)cc2F)CCO1` [Compound I-16, (R)-4-(2-((3-fluoro-4-((2-methylmorpholino)methyl)phenyl)amino)pyrimidin-4-yl)-N-hydroxybenzamide] the “Morris Water Maze time spent in NW (Target Quadrant)” value (Tg2576 AD Disease Mice) was 15.49 ± 1.80 s, the “Brain Conc (ng/mL)” value ([4]; G3 Tg2576 mice, end of experiment, 9 hr post dose) was “No Peak” and the “plasma concentration time course” value ([4]; G3 mice bled at different time points after the water maze test) was “time course dependent decrease”. It also gave a concentration at 2 h ([4]; male, mouse, plasma, oral, G3 Tg2576 mice, end of experiment, 2 hr post dose, read-out: Plasma Concentrations) of 106 ± 13.8 ng/mL, a concentration at 4 h ([4]; male, mouse, plasma, oral, G3 Tg2576 mice, end of experiment, 4 hr post dose, read-out: Plasma Concentrations) of 32.6 ± 4.75 ng/mL and a concentration at 6 h ([4]; male, mouse, plasma, oral, G3 Tg2576 mice, end of experiment, 6 hr post dose, read-out: Plasma Concentrations) of 19 ± 4.16 ng/mL. For the same molecule, the concentration at 8 h ([4]; male, mouse, plasma, oral, G3 Tg2576 mice, end of experiment, 8 hr post dose, read-out: Plasma Concentrations) was 12.1 ± 2.1 ng/mL.
